Source: patent publication US4606908A, “Methods and compositions for plasma and organ imaging” (Washington Research Foundation, priority 1983, dated 1986)

Test system: isolated rabbit hearts
Test: extraction and retention of tracer in isolated perfused rabbit hearts (indicator dilution, coronary sinus outflow)
Design: species or system New Zealand white rabbits
Conditions: isolated rabbit heart
Description: For isolated heart studies, after anesthesia with pentobarbital, the hearts were removed from 2 to 3 kg New Zealand white rabbits and mounted on a perfusion system in which the flow was controlled and the perfusion pressure monitored. The perfusate was (mM): Na 142, K 5.4, Mg 1.0, Ca 2.0, Cl 141, HCO3 12, PO4 0.435, glucose 11.0, and insulin 2 units/L, at 37° C. The coronary sinus flow and Thebesian flow into the right ventricle were collected via cannula placed through the pulmonary artery and a total effluent flow measured with graduated cylinder and stopwatch. Reference and test tracers were simultaneously injected as a mixed bolus into the aortic cannula, which supplied only the coronary system. Samples of the coronary sinus effluent were taken from the cannulated pulmonary artery at intervals of 1, 2, 4 or 10 seconds; higher sampling rates were used during the first part of the curves. The outflow of response was calculated as the fraction of dose emerging per unit time, h(t), at each time t:
F is the perfusate flow ml×s^-1 ;
C(t) is the concentration of tracer, cpm/ml; and
q0 is the injected dose of tracer, cpm.

CNCCCN1c2ccccc2CCc2ccc([125I])cc21 [^125 I-DMI]
retentions at 10-20 min (10-20 min): about 80% | maximal instantaneous extractions (37° C., plasma flows up to 1.5 ml/min×g): 96% | Overall retentions at 1 min (1 min, minimum value, indicator possibly impure): about 91%
